Laboratory results: patent US20240285670A1, “THERAPEUTIC TREATMENT OF TUMORS BY BLOCKING THE HEME SYNTHESIS-EXPORT AXIS” (Università degli Studi di Torino, priority 2021, published 2024)

How the values were obtained:
SKCO1 cells = assay: Mitochondrial ATP levels in SKCO1 cells; type: cell-based, human; conditions: FLVCR1a-silenced vs scramble shRNA SKCO1 cells
From the text: (A, C, E) Activities of the mitochondrial electron transport chain complexes I-IV. FLVCR1a-silenced Caco2 (A), SKCO1 (C) or C80 cells (E) are compared to cells expressing a scramble shRNA. Results were expressed as nmol NAD^+/min/mg mitochondrial protein for complex I, nmol reduced cytochrome c/min/mg mitochondrial protein for complexes II-III, nmol oxidized cytochrome c/min/mg mitochondrial protein for complex IV. Data represent mean±SEM, n=3. For statistical analyses, an unpaired Student's t-test was used; *=p<0.05, **=p<0.01. (B, D, F) Mitochondrial ATP levels measured by a bioluminescent assay kit. FLVCR1a-silenced Caco2 (B), SKCO1 (D) or C80 cells (F) are compared to cells expressing a scramble shRNA. Results are expressed as nmol/mg mitochondrial proteins. […] Results were expressed as nmol NAD^+/min/mg mitochondrial protein for complex I, nmol reduced cytochrome c/min/mg mitochondrial protein for complexes II-III, nmol oxidized cytochrome c/min/mg mitochondrial protein for complex IV. […] (H) Mitochondrial ATP levels measured by a bioluminescent assay kit in Caco2 cells overexpressing FLVCR1a (indicated as FLVCR1a+) compared to cells stably transduced with an empty vector. Results are expressed as nmol/mg mitochondrial proteins. […]
ATP levels in mitochondria extracts were assessed by the ATP Bioluminescent Assay Kit (Sigma-Aldrich, St. Louis, MO USA, catalog n° FLAA). […]

SH-SY5Y cells = assay: Activity of mitochondrial ETC complexes I-IV in SHSY-5Y cells; type: cell-based, human; conditions: FLVCR1a-silenced vs scramble shRNA SH-SY5Y cells
From the text: Results were expressed as nmol NAD*/min/mg mitochondrial protein for complex I, nmol reduced cytochrome c/min/mg mitochondrial protein for complexes II-III, nmol oxidized cytochrome c/min/mg mitochondrial protein for complex IV. Data represent mean±SEM, n=3. For statistical analyses, an unpaired Student's t-test was used; *=p<0.05, **=p<0.01, *=p<0.001. […] Results are expressed as nmol/mg mitochondrial proteins. Data represent mean±SEM, n=3. For statistical analyses, an unpaired Student's t-test was used; *=p<0.05. […] Results are expressed as pmol CO2/h/mg protein. Data represent mean±SEM, n=3. For statistical analyses, an unpaired Student's t-test was used; **=p<0.01. […] Results were expressed as nmol NAD*/min/mg mitochondrial protein for complex I, nmol reduced cytochrome c/min/mg mitochondrial protein for complexes II-III, nmol oxidized cytochrome c/min/mg mitochondrial protein for complex IV. […] Results are expressed as nmol/mg mitochondrial proteins. […] Results are expressed as pmol CO2/h/mg protein. […] (H) TCA cycle enzymes activities are reported in boxes and expressed as mU/mg mitochondrial proteins. […] Results were expressed as nmol NAD^+/min/mg mitochondrial protein for complex I, nmol reduced cytochrome c/min/mg mitochondrial protein for complexes II-III, nmol oxidized cytochrome c/min/mg mitochondrial protein for complex IV. […] Results are expressed as nmol/mg mitochondrial proteins. […]

## FLVCR1a shRNA: shRNA specifically down-regulating FLVCR1a without targeting FLVCR1b; pLKO.1 lentiviral clone TRCN0000059599, antisense SEQ ID No.: 2 (antisense TTGCTAATGATGCTGTACTGG; sense CCAGTACAGCATCATTAGCAA)
SKCO1 cells
  mitochondrial ATP levels: increased
SH-SY5Y cells
  activity of ETC complexes: enhanced activity of ETC complexes
